Consider 46 compounds from ChEMBL document CHEMBL3352063, “Transition state mimetics of the Plasmodium export element are potent inhibitors of Plasmepsin V from P. falciparum and P. vivax” (J Med Chem, 2014).

Numbered stars: 1 amine (or outer) side, 2 acyl side, 3 side chain; on linkers, the order of the positions; unused ones are H or OH. Square brackets hold non-standard residues; d marks the D form. Peptide text beside a SMILES is read from it. * marks the point of attachment. Sta = CC(C)C[C@H](N)[C@@H](O)CC(=O)O; Hydrocinnamoyl = O=C(CCc1ccccc1)*; NHPhenethyl = c1ccc(CCN*)cc1; Isobutyryl = CC(C)C(=O)*; Piperidide = C1CCN(*)CC1; Pyrrolidide = C1CCN(*)C1; Cbz = O=C(OCc1ccccc1)*; PhAc = O=C(Cc1ccccc1)*; CO = O=C([*:1])[*:2]; NHBn = c1ccc(CN*)cc1; Alloc = C=CCOC(=O)*; Bz = O=C(c1ccccc1)*; NHPh = c1ccc(N*)cc1; GABA = NCCCC(=O)O; Ms = CS(=O)(=O)*; NHiPr = CC(C)N*; NHPr = CCCN*

The target of experiment [1] is Plasmepsin V (Plasmodium falciparum (isolate 3D7)) (UniProt Q8I6Z5). Nature of the experiment: Inhibition of Plasmodium falciparum plasmepsin V assessed as cleavage of wtKAHRP fluorogenic substrate at 1 uM.
Plasmepsin V (Plasmodium falciparum (isolate 3D7)), sequence (Q8I6Z5 whole entry, looked up): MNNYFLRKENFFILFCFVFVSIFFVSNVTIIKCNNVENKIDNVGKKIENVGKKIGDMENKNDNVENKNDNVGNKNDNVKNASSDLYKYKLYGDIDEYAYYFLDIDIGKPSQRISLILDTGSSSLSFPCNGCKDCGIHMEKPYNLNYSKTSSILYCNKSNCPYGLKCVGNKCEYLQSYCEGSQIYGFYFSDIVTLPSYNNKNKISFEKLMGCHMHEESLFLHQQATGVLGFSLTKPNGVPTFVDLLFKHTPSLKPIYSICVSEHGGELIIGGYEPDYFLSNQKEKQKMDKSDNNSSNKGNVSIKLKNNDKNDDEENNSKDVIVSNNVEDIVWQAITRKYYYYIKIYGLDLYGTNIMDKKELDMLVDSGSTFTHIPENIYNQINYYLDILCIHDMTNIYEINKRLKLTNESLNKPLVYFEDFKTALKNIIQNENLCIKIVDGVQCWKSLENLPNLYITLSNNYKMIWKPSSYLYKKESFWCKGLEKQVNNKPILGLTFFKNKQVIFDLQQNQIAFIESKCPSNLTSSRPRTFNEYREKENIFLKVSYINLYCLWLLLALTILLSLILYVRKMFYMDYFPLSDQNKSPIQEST
Experiment [2] addresses Beta-secretase 1 (Homo sapiens, UniProt P56817). Nature of the experiment: Inhibition of human BACE1 assessed as cleavage of TRF substrate.
The target in experiment [3] is Plasmepsin V (Plasmodium falciparum (isolate 3D7), UniProt Q8I6Z5). Nature of the experiment: Inhibition of Plasmodium falciparum plasmepsin V assessed as cleavage of wtKAHRP fluorogenic substrate.
Plasmepsin V, sequence (Q8I6Z5 whole entry): as the sequence (Q8I6Z5 whole entry, looked up) above
Experiment [4] has as its target Cathepsin D (Homo sapiens, UniProt P07339). Nature of the experiment: Inhibition of human cathepsin D assessed as cleavage of wtKAHRP fluorogenic substrate.

Beta-secretase 1, sequence (P56817 whole entry): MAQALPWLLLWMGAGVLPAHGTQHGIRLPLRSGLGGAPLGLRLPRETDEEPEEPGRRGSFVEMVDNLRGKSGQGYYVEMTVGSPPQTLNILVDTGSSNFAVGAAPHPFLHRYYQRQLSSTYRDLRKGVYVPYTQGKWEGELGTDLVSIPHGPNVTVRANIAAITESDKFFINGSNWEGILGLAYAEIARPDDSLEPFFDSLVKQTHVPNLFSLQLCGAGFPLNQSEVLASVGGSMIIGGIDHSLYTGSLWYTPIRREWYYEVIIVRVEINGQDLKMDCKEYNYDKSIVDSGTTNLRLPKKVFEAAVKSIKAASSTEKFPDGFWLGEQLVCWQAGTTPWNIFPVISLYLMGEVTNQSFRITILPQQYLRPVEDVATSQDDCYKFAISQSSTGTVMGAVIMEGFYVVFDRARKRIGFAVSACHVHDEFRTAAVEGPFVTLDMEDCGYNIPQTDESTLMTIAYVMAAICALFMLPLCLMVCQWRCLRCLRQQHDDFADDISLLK
Cathepsin D, sequence (P07339 65-162 limits assumed): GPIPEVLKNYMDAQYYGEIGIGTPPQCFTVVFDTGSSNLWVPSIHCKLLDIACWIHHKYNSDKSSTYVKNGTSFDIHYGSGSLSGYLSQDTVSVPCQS
Cathepsin D, sequence (P07339 169-412 limits assumed): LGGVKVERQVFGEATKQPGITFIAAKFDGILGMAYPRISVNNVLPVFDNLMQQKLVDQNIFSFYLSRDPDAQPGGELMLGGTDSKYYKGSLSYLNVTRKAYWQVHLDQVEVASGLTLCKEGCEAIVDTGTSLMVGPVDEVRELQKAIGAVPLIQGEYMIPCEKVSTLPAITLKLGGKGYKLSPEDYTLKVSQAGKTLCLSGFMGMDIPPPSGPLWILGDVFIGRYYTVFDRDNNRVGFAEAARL

As a reminder, the inhibition is the relative decrease from the control value, in per cent. For `CC(C)C[C@H](NC(=O)[C@H](C)NC(=O)[C@H](CCCNC(=N)N)NC(=O)N(C)C)[C@@H](O)CC(=O)NCCc1ccccc1` ({NMe2-CO}-Arg-Ala-[Sta]-NHPhenethyl), the inhibition in experiment [1] came out at 65%.

The IC50 is the concentration at which inhibition is half-maximal. On to `CC(C)C[C@H](NC(=O)[C@H](C)NC(=O)[C@H](CCCCN)NC(=O)OCc1ccccc1)[C@@H](O)CC(=O)NC1CCCCC1`, for which the half-maximal inhibitory concentration (IC50) is > 100 µM in experiment [2], > 20 µM in experiment [3] and > 100 µM in experiment [4].

Consider `CC(=O)N[C@@H](CCCNC(=N)N)C(=O)N[C@@H](C)C(=O)N[C@@H](CC(C)C)[C@@H](O)CC(=O)NCCCC(N)=O` (Ac-RA[Sta][GABA]-NH2), for which the values for the 50% inhibitory concentration (IC50) in experiment [2], in experiment [3] and in experiment [4] were > 100 µM, 0.865 µM and > 100 µM, respectively.

As for `CC(C)C[C@H](NC(=O)[C@H](C)NC(=O)[C@H](CCCNC(=N)N)NC(=O)NCc1ccccc1)[C@@H](O)CC(=O)NCCc1ccccc1` ({NHBn-CO}-Arg-Ala-[Sta]-NHPhenethyl), the inhibition in experiment [1] was 32%.

Take `CC(C)C[C@H](NC(=O)[C@H](C)NC(=O)[C@H](CCCNC(=N)N)NC(=O)OCc1ccccc1)[C@@H](O)CC(=O)NC1CCC1`: the inhibition in experiment [1] amounted to 56%.

`CCCNC(=O)C[C@H](O)[C@H](CC(C)C)NC(=O)[C@H](C)NC(=O)[C@H](CCCNC(=N)N)NC(=O)OCc1ccccc1` (Cbz-Arg-Ala-[Sta]-NHPr): the inhibition in experiment [1] was 56%.

Take `CC(C)C[C@H](NC(=O)[C@H](C)NC(=O)[C@H](CCCNC(=N)N)NS(=O)(=O)C1CC1)[C@@H](O)CC(=O)NCCc1ccccc1`: the inhibition in experiment [1] turned out to be 80%.

With `CC(=O)N[C@@H](CCCNC(=N)N)C(=O)N[C@@H](C)C(=O)N[C@@H](CC(C)C)[C@@H](O)CC(=O)NC1CCCCC1`, the IC50 in experiment [2] is > 100 µM; in experiment [3], 0.967 µM; in experiment [4] it was > 100 µM.

With `C=CCOC(=O)N[C@@H](CCCNC(=N)N)C(=O)N[C@@H](C)C(=O)N[C@@H](CC(C)C)[C@@H](O)CC(=O)NCCc1ccccc1` (Alloc-Arg-Ala-[Sta]-NHPhenethyl), in experiment [1], the inhibition worked out at 35%.

Regarding `CC(=O)N[C@@H](CCCNC(=N)N)C(=O)N[C@@H](C)C(=O)N[C@@H](CC(C)C)[C@@H](O)CC(=O)NCCc1ccccc1` (Ac-Arg-Ala-[Sta]-NHPhenethyl), in experiment [1], the inhibition came to 42%.

As to `CC(C)C[C@H](NC(=O)[C@H](C)NC(=O)[C@H](CCCNC(=N)N)NC(=O)OCc1ccccc1)[C@@H](O)CC(=O)NC1CCCC1`, the inhibition in experiment [1] is 52%.

As for `CC(C)C[C@H](NC(=O)[C@H](C)NC(=O)[C@H](CCCNC(=N)N)NC(=O)OCc1ccccc1)[C@@H](O)CC(=O)N(C)CCc1ccccc1`, the inhibition in experiment [1] worked out at 11%.

`CC(=O)N[C@@H](CCCNC(=N)N)C(=O)N[C@@H](C)C(=O)N[C@@H](CC(C)C)[C@@H](O)CC(=O)N[C@@H](CCC(N)=O)C(N)=O` (Ac-RA[Sta]Q-NH2): the half-maximal inhibitory concentration (IC50) was > 100 µM in experiment [2], 0.556 µM in experiment [3] and > 100 µM in experiment [4].

Regarding `CC(C)C[C@H](NC(=O)[C@H](C)NC(=O)[C@H](CCCNC(=N)N)NC(=O)OCc1ccccc1)[C@@H](O)CC(=O)N(C)Cc1ccccc1`, in experiment [1], the inhibition was 30%.

Turning to `CC(C)C[C@H](NC(=O)[C@H](C)NC(=O)[C@H](CCCNC(=N)N)NC(=O)Nc1ccccc1)[C@@H](O)CC(=O)NCCc1ccccc1` ({NHPh-CO}-Arg-Ala-[Sta]-NHPhenethyl), the inhibition in experiment [1] turned out to be 53%.

As for `CC(C)C[C@H](NC(=O)[C@H](C)NC(=O)[C@H](CCCNC(=N)N)NC(=O)OCc1ccccc1)[C@@H](O)CC(=O)N1CCCCC1` (Cbz-Arg-Ala-[Sta]-Piperidide), in experiment [1], the inhibition was 27%.

In the case of `CC(C)C[C@H](NC(=O)[C@H](C)NC(=O)[C@H](CCCNC(=N)N)NC(=O)c1ccccc1)[C@@H](O)CC(=O)NCCc1ccccc1` (Bz-Arg-Ala-[Sta]-NHPhenethyl), the IC50 in experiment [2] was > 100 µM; in experiment [3], 0.774 µM; in experiment [4] it was > 100 µM. The inhibition in experiment [1] came out at 62%.

In the case of `C[C@H](NC(=O)[C@H](CCCNC(=N)N)NC(=O)OCc1ccccc1)C(=O)N[C@@H](Cc1ccccc1)[C@@H](O)CC(=O)NC1CCCCC1`, the half-inhibitory concentration (IC50) in experiment [3] is > 20 µM.

As for `CC(C)C[C@H](NC(=O)[C@H](C)NC(=O)[C@H](CCCNC(=N)N)NC(=O)C1CCCCC1)[C@@H](O)CC(=O)NCCc1ccccc1`, in experiment [1], the inhibition turned out to be 43%.

Turning to `CC(C)C[C@H](NC(=O)[C@H](C)NC(=O)[C@H](CCCNC(=N)N)NC(=O)OCc1ccccc1)[C@@H](O)CC(=O)NCC1CCCCC1`, the inhibition in experiment [1] was found to be 63%.

Turning to `CCNC(=O)N[C@@H](CCCNC(=N)N)C(=O)N[C@@H](C)C(=O)N[C@@H](CC(C)C)[C@@H](O)CC(=O)NCCc1ccccc1` ({NHEt-CO}-Arg-Ala-[Sta]-NHPhenethyl), the inhibition in experiment [1] was 26%.

Regarding `CC(C)C[C@H](NC(=O)[C@H](C)NC(=O)[C@H](CCCCNC(=N)N)NC(=O)OCc1ccccc1)[C@@H](O)CC(=O)NC1CCCCC1`, in experiment [3], the IC50 was > 20 µM.

As for `CC(C)CCNC(=O)C[C@H](O)[C@H](CC(C)C)NC(=O)[C@H](C)NC(=O)[C@H](CCCNC(=N)N)NC(=O)OCc1ccccc1`, the inhibition in experiment [1] turned out to be 65%.

Take `CC(C)C[C@H](NC(=O)[C@H](C)NC(=O)[C@H](CCCNC(=N)N)NC(=O)OCc1ccccc1)[C@@H](O)CC(=O)NC1CC1`: the inhibition in experiment [1] amounted to 55%.

For the compound `CC(C)C[C@H](NC(=O)[C@H](C)NC(=O)[C@H](CCCNC(=N)N)NC(=O)OCc1ccccc1)[C@@H](O)CC(=O)N(C)C` (Cbz-Arg-Ala-[Sta]-NMe2), the inhibition in experiment [1] amounted to 32%.

Take `CC[C@H](C)[C@H](NC(=O)[C@H](C)NC(=O)[C@H](CCCNC(=N)N)NC(=O)OCc1ccccc1)[C@@H](O)CC(=O)NC1CCCCC1`: the IC50 in experiment [3] was > 20 µM.

Consider `CC(C)C[C@H](NC(=O)[C@H](C)NC(=O)[C@H](CCCNC(=N)N)NS(C)(=O)=O)[C@@H](O)CC(=O)NCCc1ccccc1` (Ms-Arg-Ala-[Sta]-NHPhenethyl), for which, in experiment [1], the inhibition worked out at 53%.

Consider `CC(C)C[C@H](NC(=O)[C@H](C)NC(=O)[C@H](CCCNC(=N)N)NC(=O)OCc1ccccc1)[C@@H](O)CC(=O)NCCCc1ccccc1`, for which the inhibition in experiment [1] was determined as 75%.

On to `CC(C)C[C@H](NC(=O)[C@H](C)NC(=O)[C@H](CCCNC(=N)N)NC(=O)Cc1ccccc1)[C@@H](O)CC(=O)NCCc1ccccc1` (PhAc-Arg-Ala-[Sta]-NHPhenethyl), for which the inhibition in experiment [1] was 59%.

On to `CC(C)C[C@H](NC(=O)[C@H](C)NC(=O)[C@H](CCCNC(=N)N)NC(=O)OCc1ccccc1)[C@@H](O)CC(=O)N(C)C(C)c1ccccc1` (stereo not given in full), for which the inhibition in experiment [1] came to 30%.

In the case of `CC(C)C[C@H](NC(=O)[C@H](C)NC(=O)[C@H](CCCNC(=N)N)NC(=O)OCc1ccccc1)[C@@H](O)CC(=O)NC1CCCc2ccccc21` (stereo not given in full), in experiment [1], the inhibition was found to be 51%.

As to `CC(C)C[C@H](NC(=O)[C@H](Cc1ccccc1)NC(=O)[C@H](CCCNC(=N)N)NC(=O)OCc1ccccc1)[C@@H](O)CC(=O)NC1CCCCC1`, the concentration for half-maximal inhibition (IC50) is > 100 µM in experiment [2], 0.23 µM in experiment [3] and 4.8 µM in experiment [4].

Turning to `CC(C)C[C@H](NC(=O)[C@H](C)NC(=O)[C@H](CCCNC(=N)N)NC(=O)NC1CCCC1)[C@@H](O)CC(=O)NCCc1ccccc1`, the inhibition in experiment [1] was found to be 41%.

Take `CC(C)C[C@H](NC(=O)[C@H](C)NC(=O)[C@H](CCCNC(=N)N)NC(=O)CCc1ccccc1)[C@@H](O)CC(=O)NCCc1ccccc1` (Hydrocinnamoyl-Arg-Ala-[Sta]-NHPhenethyl): the inhibition in experiment [1] amounted to 68%.

On to `CC(C)[C@H](NC(=O)[C@H](C)NC(=O)[C@H](CCCNC(=N)N)NC(=O)OCc1ccccc1)[C@@H](O)CC(=O)NC1CCCCC1`, for which the 50% inhibitory concentration (IC50) in experiment [3] is > 20 µM.

For the compound `CC(C)C[C@H](NC(=O)[C@H](C)NC(=O)[C@H](CCCNC(=N)N)NC(=O)OCc1ccccc1)[C@@H](O)CC(=O)N1CCCC1` (Cbz-Arg-Ala-[Sta]-Pyrrolidide), the inhibition in experiment [1] worked out at 13%.

Consider `CC(C)C[C@H](NC(=O)[C@H](C)NC(=O)[C@H](CCCNC(=N)N)NC(=O)OCc1ccccc1)[C@@H](O)CC(=O)NC(C)C` (Cbz-Arg-Ala-[Sta]-NHiPr), for which the inhibition in experiment [1] worked out at 42%.

Take `CC(C)C[C@H](NC(=O)[C@H](C)NC(=O)[C@H](CCc1ccccc1)NC(=O)OCc1ccccc1)[C@@H](O)CC(=O)NC1CCCCC1`: the IC50 is > 100 µM in experiment [2], > 20 µM in experiment [3] and 0.043 µM in experiment [4].

As for `CC(C)COC(=O)N[C@@H](CCCNC(=N)N)C(=O)N[C@@H](C)C(=O)N[C@@H](CC(C)C)[C@@H](O)CC(=O)NCCc1ccccc1`, the inhibition in experiment [1] was 47%.

`CC(C)C[C@H](NC(=O)[C@H](C)NC(=O)[C@H](CCCNC(=N)N)NC(=O)OCc1ccccc1)[C@@H](O)CC(=O)N1CCC(c2ccccc2)CC1`: the inhibition in experiment [1] was found to be 13%.

Regarding `CC(C)C[C@H](NC(=O)[C@H](C)NC(=O)[C@H](CCCNC(=N)N)NC(=O)OCc1ccccc1)[C@@H](O)CC(=O)NCCc1ccc(Cl)cc1`, the IC50 in experiment [2] is > 100 µM; in experiment [3], 0.348 µM; in experiment [4] it was > 100 µM.

With `CC(=O)N[C@@H](CCCNC(=N)N)C(=O)N[C@@H](C)C(=O)N[C@@H](CC(C)C)[C@@H](O)CC(=O)N[C@@H](C)C(N)=O` (Ac-RA[Sta]A-NH2), the results for the IC50 in experiment [2], in experiment [3] and in experiment [4] were > 100 µM, 0.613 µM and > 100 µM, respectively.

In the case of `CC(C)CNC(=O)C[C@H](O)[C@H](CC(C)C)NC(=O)[C@H](C)NC(=O)[C@H](CCCNC(=N)N)NC(=O)OCc1ccccc1`, in experiment [1], the inhibition was 49%.

Take `CC(C)C[C@H](NC(=O)[C@H](C)NC(=O)[C@H](CCCNC(=N)N)NS(=O)(=O)CCc1ccccc1)[C@@H](O)CC(=O)NCCc1ccccc1`: the inhibition in experiment [1] was 78%.

Consider `CC(C)C[C@H](NC(=O)[C@H](C)NC(=O)[C@H](CCCNC(=N)N)NC(=O)OCc1ccccc1)[C@@H](O)CC(=O)N1CCc2ccccc2C1`, for which the inhibition in experiment [1] was determined as 45%.

As for `CC(C)C[C@H](NC(=O)[C@H](C)NC(=O)[C@H](CCCNC(=N)N)NC(=O)C(C)C)[C@@H](O)CC(=O)NCCc1ccccc1` (Isobutyryl-Arg-Ala-[Sta]-NHPhenethyl), the inhibition in experiment [1] was found to be 49%.
